Measured values as given in patent US8486996B2, “Aroylfuranes and aroylthiophenes” (Basilea Pharmaceutica AG, priority 2006, dated 2013).
Read-outs that look alike come from different tables or passages of the source.

Legend:
Format in all cases: cell-based
tumor cells [1] = experiment: MTS proliferation assay (72 h read-out)
Description: B) MTS Proliferation Assay
The assay is performed in 96 well tissue culture plates. The cells (range: 1.5*10^3-10^4) are seeded out in 80 μl complete medium 24 h prior to compound treatment. The test compounds are added in 20 μl complete medium containing max 5% DMSO. The final compound concentrations in the assays are in the range of 0.001 μM-10 μM. The assay plates are incubated for 72 h at culture conditions. The MTS reagent is prepared according to the manufacturer's protocol (Promega G1111). 20 μl MTS reagent are added to each well; the assay plates are quickly spun and incubated for another 3 h at culture conditions. Subsequently, the plates are shortly shaked and absorption measured with a microplate-reader at 492 nm. The scores A, B, C and D are explained at the end of the Table.

tumor cells [2] = experiment: Hoechst 33342 nuclear staining (48 h read-out)
Description: (§1) A) Hoechst 33342 Nuclear Staining
(§2) This assay is performed in 96 well tissue culture plates. Appropriate number of cells (adherent cells: 3-5*10^3, suspension cells: 8-10*10^3) are being seeded out in 80 μl complete medium. Adherent cells are incubated for 24 h for proper spreading out before addition of test compounds while suspension cells are immediately treated with test compounds after seeding out. The test compounds are added in 20 μl complete medium containing max 5% DMSO. The final compound concentrations in the assays are in the range of 0.001 μM-10 μM. After 24 h or 48 h incubation at culture conditions, 10 μl medium containing Hoechst 33342 dye (Sigma B-2261) at 2-5 μg/ml are added to each well. The assay plates are then further incubated for 30 minutes and subsequently analyzed with a standard inverted fluorescence microscope.
(§3) The readout allows the determination of the fraction of apoptotic nuclei as well as other morphological criteria specific for apoptosis as a function of the treatment. The scores A, B, C and D are explained at the end of the Table.

[3] = Hoechst 33342 nuclear staining (48 h read-out)
Description: as §1, §2, §3

tumor cells [4] = experiment: Mitochondrial membrane potential, JC-1 (read-out 48 h); settings: JC-1, 48 h
Description: D) Mitochondrial Membrane Potential
as §2, with “The final compound concentrations in the assays are in the range of 0.001 μM-10 μM.” left out, “JC-1 (Molecular Probes, T-3168)” for “Hoechst 33342 dye (Sigma B-2261)”, “microscope by using the FITC and TRITC filters.” for “microscope.”
The readout allows the determination of the fraction of cells which show a dissipation of the mitochondrial membrane potential strongly indicating an apoptotic cell death as a function of the treatment. The scores A, B, C and D are explained at the end of the Table.

[5] = HT1080 cells, read-out: MTS proliferation assay IC50, HT1080
[6] = HeLa cells, read-out: MTS proliferation assay IC50, HeLa
[7] = Jily cells, read-out: MTS proliferation assay IC50, Jily
[8] = Jurkat cells, read-out: MTS proliferation assay IC50, Jurkat
[9] = HeLa cells, read-out: Hoechst 33342 nuclear staining EC50, HeLa
[10] = Jurkat cells, read-out: Hoechst 33342 nuclear staining EC50, Jurkat
[11] = MRC5 cells, read-out: Hoechst 33342 nuclear staining EC50, MRC5
[12] = HeLa cells, read-out: Mitochondrial membrane potential (read-out 48 h) HeLa
[13] = Jily cells, read-out: Mitochondrial membrane potential (read-out 48 h) Jily
[14] = Jurkat cells, read-out: Mitochondrial membrane potential (read-out 48 h) Jurkat
[15] = MCF7 cells, read-out: Mitochondrial membrane potential (read-out 48 h) MCF7

Row | Structure (SMILES) | IC50 (tumor cells [1]; [5]) [µM] | IC50 (tumor cells [1]; [6]) [µM] | IC50 (tumor cells [1]; [7]) [µM] | IC50 (tumor cells [1]; [8]) [µM] | EC50 (tumor cells [2]; [9]) [µM] | EC50 (tumor cells [2]; [10]) [µM] | EC50 [3, 11] [µM] | EC50 (tumor cells [4]; [12]) [µM] | EC50 (tumor cells [4]; [13]) [µM] | EC50 (tumor cells [4]; [14]) [µM] | EC50 (tumor cells [4]; [15]) [µM] | EC50 ([3]; PBL, read-out: Hoechst 33342 nuclear staining EC50, PBL) [µM]
1 | CCCOc1ccc(F)cc1C(=O)c1sc2ncc([N+](=O)[O-])cc2c1N [Example 127] | > 1 | > 1 | > 1 | > 1 | > 1 | > 1 | > 1 | > 1 | > 1 | > 1 | > 1 | –
2 | CCCOc1ccc(F)cc1C(=O)c1sc2ncc(N)cc2c1N [Example 128] | 0.1 to 1 | > 1 | 0.1 to 1 | 0.1 to 1 | 0.1 to 1 | 0.1 to 1 | 0.1 to 1 | > 1 | > 1 | 0.1 to 1 | > 1 | > 1
3 | Nc1c(C(=O)c2cc(F)ccc2N2CCOCC2)sc2ncc([N+](=O)[O-])cc12 [Example 129] | > 1 | > 1 | > 1 | > 1 | > 1 | > 1 | > 1 | > 1 | > 1 | > 1 | > 1 | –
4 | Nc1cnc2sc(C(=O)c3cc(F)ccc3N3CCOCC3)c(N)c2c1 [Example 130] | 0.1 to 1 | 0.1 to 1 | 0.01 to 0.1 | 0.01 to 0.1 | 0.1 to 1 | 0.1 to 1 | 0.1 to 1 | 0.1 to 1 | 0.1 to 1 | 0.1 to 1 | > 1 | –
5 | Nc1c(C(=O)c2ccccc2N2CCOCC2)sc2ncc([N+](=O)[O-])cc12 [Example 131] | > 1 | > 1 | > 1 | > 1 | > 1 | > 1 | > 1 | > 1 | > 1 | > 1 | > 1 | –
6 | Nc1cnc2sc(C(=O)c3ccccc3N3CCOCC3)c(N)c2c1 [Example 132] | > 1 | > 1 | 0.1 to 1 | 0.1 to 1 | > 1 | 0.1 to 1 | > 1 | > 1 | > 1 | > 1 | > 1 | –
7 | CCCOc1ccccc1C(=O)c1sc2nc(C)c(C)cc2c1N [Example 133] | 0.01 to 0.1 | 0.01 to 0.1 | 0.01 to 0.1 | 0.01 to 0.1 | 0.01 to 0.1 | 0.01 to 0.1 | 0.01 to 0.1 | 0.01 to 0.1 | 0.01 to 0.1 | 0.01 to 0.1 | > 1 | –
8 | Cc1cc2c(N)c(C(=O)c3ccccc3N3CCOCC3)sc2nc1C [Example 134] | 0.01 to 0.1 | 0.1 to 1 | 0.01 to 0.1 | 0.01 to 0.1 | 0.1 to 1 | 0.01 to 0.1 | 0.1 to 1 | 0.01 to 0.1 | 0.01 to 0.1 | 0.01 to 0.1 | > 1 | –
9 | Cc1cc2c(N)c(C(=O)c3ccccc3N3CC=CCC3)sc2nc1C [Example 135] | 0.01 to 0.1 | 0.1 to 1 | 0.01 to 0.1 | 0.01 to 0.1 | 0.1 to 1 | 0.01 to 0.1 | 0.1 to 1 | > 1 | 0.01 to 0.1 | 0.01 to 0.1 | > 1 | –
